Legend:
[1] = Effect of drinking water quality on degradation of Fluralaner; format: physicochemical
Method: To assess what caused the degradation of Fluralaner in dilution in drinking water, the impact of different types and qualities of drinking water was tested. This was done by incubation of samples containing 1 μg/g of Fluralaner, in water that contained different ions at increased concentrations from average normal conditions. Samples were mixed and incubated for 7 days, either at 2-8° C., or at 40° C./75% relative humidity (RH). Fluralaner contents were measured before and after incubations. Isoxazolines such as Fluralaner can be detected and quantified by fast liquid chromatography methods, using standard equipment and procedures, such as UHPLC. Standard liquids for washing and as carrier are e.g.: LC grade Acetonitrile, Methanol, Formic acid, and MiliQ™ water can be prepared in house. Fluralaner is characterised based on its UV spectrum and retention profile, and quantified in reference to dilutions of standards. LoQ=Limit of Quantitation, the lowest concentration at which the analyte can reliably be detected. For Fluralaner by UHPLC the LoQ is 100 ng/ml.

[2] = test system: poultry red mite (D. gallinae); assay: Efficacy of Fluralaner in medicated drinking water against poultry red mite infestation of laying hens; format: in vivo, Dermanyssus gallinae; details: for % Inhibition of mites 24 hours after infestation on day 1 / % Inhibition of mites 24 hours after infestation on day 5 / % Inhibition of mites 24 hours after infestation on day 8 / % Inhibition of mites 24 hours after infestation on day 12 / % Inhibition of mites 24 hours after infestation on day 15 / % Inhibition of mites 24 hours after infestation on day 19 / % Inhibition of mites 24 hours after infestation on day 22 / % Mortality of mites 24 hours after infestation on day 1 / % Mortality of mites 24 hours after infestation on day 5 / % Mortality of mites 24 hours after infestation on day 8 / % Mortality of mites 24 hours after infestation on day 12 / % Mortality of mites 24 hours after infestation on day 15 / % Mortality of mites 24 hours after infestation on day 19 / % Mortality of mites 24 hours after infestation on day 22: laying hens
Text: The drinking water used was regular tap water not comprising a significant amount of oxidising sanitizer, and no vitamin E was used in the concentrated Fluralaner solution used. Experimental animals were chickens, particularly laying hens of about 30 weeks old. These were housed in a standard poultry house. Apparently healthy birds were assigned in a random way to treatment groups kept separately, and labelled individually. The birds were kept under natural light, and were given several days for acclimatization; drinking water consumption in each group was measured on three days prior to administration to calculate the average daily water consumption. Medicated water was prepared by diluting a concentrated Fluralaner solution (10 mg/ml) to the desired concentration of Fluralaner in regular tap water (hypochlorite <0.5 ppm). […] Groups A-D (n=6) were treated with doses of 2, 1 or 0.5 mg Fluralaner/kg BW once, or with 1 mg Fluralaner/kg BW in a repeated dose of 0.5 mg/kg BW on 2 occasions, 7 days apart. On day 0 (and group D additionally on day 7), the hens in groups A-D received Fluralaner via medicated drinking water. Group E received un-medicated drinking water ad libitum. The dose to be administered was calculated based on average body weights of each treatment group, measured one day before treatment (day −1, day 6). A concentrated Fluralaner solution was diluted in the drinking water to prepare medicated drinking water ready for consumption, via the following dosing regimen: • The volume of medicated water offered per group on day 0 (group D also on day 7) was approximately 50% of the calculated mean daily water intake measured previously in the respective group in order to ensure consumption of the full dose. • Once all medicated water was consumed the other 50% volume of the mean daily water intake was supplied as unmedicated tap water in the same drinker. On days 1, 5, 8, 12, 15, 19 and 22, four of the six hens per group were infested with approximately 200 vital, D. gallinae mites (unfed nymphs and adults that had starved before infestation for 7 days). From each infested hen approximately 25 engorged mites were collected after a few hours of presence in the animal box, next they were incubated for approximately 24 hours, after which their status was observed. The dead, damaged and/or live mites were counted visually using a binocular. Mites were classified as dead if no movement was determined or mites lay in a dorsal position. Mites were classified as damaged if their movement was uncoordinated. The Mite Mortality and Mite Inhibition percentage was calculated for each treated group in comparison to a non-treated negative control group.

[3] = 1 μg/g Fluralaner in Al^3+ water at 1 mg/l
[4] = 1 μg/g Fluralaner in ClO^- water at 0.5 ppm
[5] = 1 μg/g Fluralaner in ClO^- water at 5 ppm
[6] = 1 μg/g Fluralaner in ClO^- water at 50 ppm
[7] = 1 μg/g Fluralaner in ClO^- water at 150 ppm
[8] = 1 μg/g Fluralaner in ClO^- water at 250 ppm
[9] = 1 μg/g Fluralaner in Cl^- water at 300 mg/l
[10] = 1 μg/g Fluralaner in Cu^2+ water at 10 mg/l
[11] = 1 μg/g Fluralaner in Fe^3+ water at 1 mg/l
[12] = 1 μg/g Fluralaner in Hard water/high pH (500 mg CaCl2•2H2O/l; pH 8.1)
[13] = 1 μg/g Fluralaner in K^+ water at 300 mg/l
[14] = 1 μg/g Fluralaner in NO3^- water at 100 mg/l
[15] = 1 μg/g Fluralaner in Na^+ water at 300 mg/l
[16] = 1 μg/g Fluralaner in PO4^- water at 100 mg/l
[17] = 1 μg/g Fluralaner in Purified water
[18] = 1 μg/g Fluralaner in Soft water/low pH (30 mg CaCl2•2H2O/l; pH 6.2)
[19] = 1 μg/g Fluralaner in Water at pH = 4
[20] = 1 μg/g Fluralaner in Water at pH = 10
[21] = Group A, 2 mg/kg BW once, drinking water
[22] = Group B, 1 mg/kg BW once, drinking water
[23] = Group C, 0.5 mg/kg BW once, drinking water
[24] = Group D, 1 (2 × 0.5) mg/kg BW, days 0 and 7, drinking water

Cc1cc(C2=NOC(c3cc(Cl)cc(Cl)c3)(C(F)(F)F)C2)ccc1C(=O)NCC(=O)NCC(F)(F)F (stereo not drawn) [Fluralaner]
Fluralaner content after 7 days at 2-8° C. [1, 3]: 0.99 µg/g
Fluralaner content after 7 days at 40° C./75% RH [1, 3]: 1.01 µg/g
Fluralaner content after 7 days at 2-8° C. [1, 4]: 0.99 µg/g
Fluralaner content after 7 days at 40° C./75% RH [1, 4]: 0.82 µg/g
Fluralaner content after 7 days at 2-8° C. [1, 5]: <LOQ
Fluralaner content after 7 days at 40° C./75% RH [1, 5]: <LOQ
Fluralaner content after 7 days at 2-8° C. [1, 6]: <LOQ
Fluralaner content after 7 days at 40° C./75% RH [1, 6]: <LOQ
Fluralaner content after 7 days at 2-8° C. [1, 7]: <LOQ
Fluralaner content after 7 days at 40° C./75% RH [1, 7]: <LOQ
Fluralaner content after 7 days at 2-8° C. [1, 8]: Not detected
Fluralaner content after 7 days at 40° C./75% RH [1, 8]: Not detected
Fluralaner content after 7 days at 2-8° C. [1, 9]: 0.97 µg/g
Fluralaner content after 7 days at 40° C./75% RH [1, 9]: 0.98 µg/g
Fluralaner content after 7 days at 2-8° C. [1, 10]: 0.90 µg/g
Fluralaner content after 7 days at 40° C./75% RH [1, 10]: 0.78 µg/g
Fluralaner content after 7 days at 2-8° C. [1, 11]: 0.91 µg/g
Fluralaner content after 7 days at 40° C./75% RH [1, 11]: 0.89 µg/g
Fluralaner content after 7 days at 2-8° C. [1, 12]: 0.92 µg/g
Fluralaner content after 7 days at 40° C./75% RH [1, 12]: 0.96 µg/g
Fluralaner content after 7 days at 2-8° C. [1, 13]: 0.90 µg/g
Fluralaner content after 7 days at 40° C./75% RH [1, 13]: 0.80 µg/g
Fluralaner content after 7 days at 2-8° C. [1, 14]: 0.92 µg/g
Fluralaner content after 7 days at 40° C./75% RH [1, 14]: 0.93 µg/g
Fluralaner content after 7 days at 2-8° C. [1, 15]: 0.85 µg/g
Fluralaner content after 7 days at 40° C./75% RH [1, 15]: 0.84 µg/g
Fluralaner content after 7 days at 2-8° C. [1, 16]: 1.14 µg/g
Fluralaner content after 7 days at 40° C./75% RH [1, 16]: 1.15 µg/g
Fluralaner content after 7 days at 2-8° C. [1, 17]: 0.90 µg/g
Fluralaner content after 7 days at 40° C./75% RH [1, 17]: 0.92 µg/g
Fluralaner content after 7 days at 2-8° C. [1, 18]: 0.88 µg/g
Fluralaner content after 7 days at 40° C./75% RH [1, 18]: 0.89 µg/g
Fluralaner content after 7 days at 2-8° C. [1, 19]: 1.23 µg/g
Fluralaner content after 7 days at 40° C./75% RH [1, 19]: 1.26 µg/g
Fluralaner content after 7 days at 2-8° C. [1, 20]: 0.78 µg/g
Fluralaner content after 7 days at 40° C./75% RH [1, 20]: 0.79 µg/g
% Inhibition of mites 24 hours after infestation on day 1 [2, 21]: 100%
% Inhibition of mites 24 hours after infestation on day 5 [2, 21]: 100%
% Inhibition of mites 24 hours after infestation on day 8 [2, 21]: 100%
% Inhibition of mites 24 hours after infestation on day 12 [2, 21]: 100%
% Inhibition of mites 24 hours after infestation on day 15 [2, 21]: 81%
% Inhibition of mites 24 hours after infestation on day 19 [2, 21]: 14%
% Inhibition of mites 24 hours after infestation on day 22 [2, 21]: 0%
% Mortality of mites 24 hours after infestation on day 1 [2, 21]: 100%
% Mortality of mites 24 hours after infestation on day 5 [2, 21]: 100%
% Mortality of mites 24 hours after infestation on day 8 [2, 21]: 100%
% Mortality of mites 24 hours after infestation on day 12 [2, 21]: 100%
% Mortality of mites 24 hours after infestation on day 15 [2, 21]: 77%
% Mortality of mites 24 hours after infestation on day 19 [2, 21]: 1%
% Mortality of mites 24 hours after infestation on day 22 [2, 21]: 0%
% Inhibition of mites 24 hours after infestation on day 1 [2, 22]: 100%
% Inhibition of mites 24 hours after infestation on day 5 [2, 22]: 100%
% Inhibition of mites 24 hours after infestation on day 8 [2, 22]: 100%
% Inhibition of mites 24 hours after infestation on day 12 [2, 22]: 95%
% Inhibition of mites 24 hours after infestation on day 15 [2, 22]: 81%
% Inhibition of mites 24 hours after infestation on day 19 [2, 22]: 3%
% Inhibition of mites 24 hours after infestation on day 22 [2, 22]: 0%
% Mortality of mites 24 hours after infestation on day 1 [2, 22]: 100%
% Mortality of mites 24 hours after infestation on day 5 [2, 22]: 100%
% Mortality of mites 24 hours after infestation on day 8 [2, 22]: 100%
% Mortality of mites 24 hours after infestation on day 12 [2, 22]: 94%
% Mortality of mites 24 hours after infestation on day 15 [2, 22]: 77%
% Mortality of mites 24 hours after infestation on day 19 [2, 22]: 2%
% Mortality of mites 24 hours after infestation on day 22 [2, 22]: 0%
% Inhibition of mites 24 hours after infestation on day 1 [2, 23]: 100%
% Inhibition of mites 24 hours after infestation on day 5 [2, 23]: 100%
% Inhibition of mites 24 hours after infestation on day 8 [2, 23]: 100%
% Inhibition of mites 24 hours after infestation on day 12 [2, 23]: 75%
% Inhibition of mites 24 hours after infestation on day 15 [2, 23]: 19%
% Inhibition of mites 24 hours after infestation on day 19 [2, 23]: 0%
% Inhibition of mites 24 hours after infestation on day 22 [2, 23]: 0%
% Mortality of mites 24 hours after infestation on day 1 [2, 23]: 100%
% Mortality of mites 24 hours after infestation on day 5 [2, 23]: 100%
% Mortality of mites 24 hours after infestation on day 8 [2, 23]: 97%
% Mortality of mites 24 hours after infestation on day 12 [2, 23]: 55%
% Mortality of mites 24 hours after infestation on day 15 [2, 23]: 15%
% Mortality of mites 24 hours after infestation on day 19 [2, 23]: 0%
% Mortality of mites 24 hours after infestation on day 22 [2, 23]: 0%
% Inhibition of mites 24 hours after infestation on day 1 [2, 24]: 100%
% Inhibition of mites 24 hours after infestation on day 5 [2, 24]: 100%
% Inhibition of mites 24 hours after infestation on day 8 [2, 24]: 100%
% Inhibition of mites 24 hours after infestation on day 12 [2, 24]: 100%
% Inhibition of mites 24 hours after infestation on day 15 [2, 24]: 99%
% Inhibition of mites 24 hours after infestation on day 19 [2, 24]: 66%
% Inhibition of mites 24 hours after infestation on day 22 [2, 24]: 27%
% Mortality of mites 24 hours after infestation on day 1 [2, 24]: 100%
% Mortality of mites 24 hours after infestation on day 5 [2, 24]: 100%
% Mortality of mites 24 hours after infestation on day 8 [2, 24]: 100%
% Mortality of mites 24 hours after infestation on day 12 [2, 24]: 100%
% Mortality of mites 24 hours after infestation on day 15 [2, 24]: 98%
% Mortality of mites 24 hours after infestation on day 19 [2, 24]: 59%
% Mortality of mites 24 hours after infestation on day 22 [2, 24]: 14%
Onset of action against red mites ([2]; all administered doses): fast onset of action

Source: patent US11179372B2, “Isoxazoline solution containing vitamin E for use with sanitized drinking water” (Intervet Inc., priority 2015, dated 2021)
